Drawing on patent US10730863B2, “Bridged bicyclic compounds as farnesoid X receptor modulators” (BRISTOL-MYERS SQUIBB COMPANY, priority 2017, dated 2020), this text covers EC50 for 33 molecules.

For this test, the target named is FXR (Homo sapiens (Human), UniProt Q96RI1). The test is described as follows: FXR EC50 (FXR agonist activity reported with each example). The test is classed as cell-based.
Chain of FXR (Q96RI1 262-486): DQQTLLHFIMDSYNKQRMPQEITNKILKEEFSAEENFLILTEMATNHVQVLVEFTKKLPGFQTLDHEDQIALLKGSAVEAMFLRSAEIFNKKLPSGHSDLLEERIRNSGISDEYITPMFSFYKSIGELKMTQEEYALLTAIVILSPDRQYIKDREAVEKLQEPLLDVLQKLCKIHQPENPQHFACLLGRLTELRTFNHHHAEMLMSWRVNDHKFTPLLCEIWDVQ

`O=C(O)c1cc(C(F)(F)F)c2cc(OCC34CCC(OCc5c(-c6c(Cl)cccc6Cl)noc5C5CC5)(CC3)CC4)ccc2n1` [Example 100, 6-((4-((5-cyclopropyl-3-(2,6-dichlorophenyl)isoxazol-4-yl)methoxy)bicyclo[2.2.2]octan-1-yl)methoxy)-4-(trifluoromethyl) quinoline-2-carboxylic acid] showed an EC50 of 7 nM.

The molecule `O=C(O)Cc1cccc(OCC23CCC(OCc4c(-c5c(Cl)cccc5Cl)noc4C4CC4)(CC2)CC3)c1` [Example 106, 2-(3-((4-((5-cyclopropyl-3-(2,6-dichlorophenyl)isoxazol-4-yl)methoxy)bicyclo[2.2.2]octan-1-yl)methoxy)phenyl)acetic acid] had an EC50 of 160 nM.

The molecule `O=C(O)c1cc(-c2noc(C34CCC(OCc5c(-c6c(Cl)cncc6Cl)noc5C5CC5)(CC3)CC4)n2)cc(C(F)(F)F)c1` [Example 235, 3-(5-(4-((5-cyclopropyl-3-(3,5-dichloropyridin-4-yl)isoxazol-4-yl)methoxy)bicyclo[2.2.2]octan-1-yl)-1,2,4-oxadiazol-3-yl)-5-(trifluoromethyl)benzoic acid] came in with an EC50 of 25 nM.

Molecule `COc1cc(-c2noc(C34CCC(OCc5c(-c6c(Cl)cncc6Cl)noc5C5CC5)(CC3)CC4)n2)cc(C(=O)O)c1OC` [Example 243, 5-(5-(4-((5-cyclopropyl-3-(3,5-dichloropyridin-4-yl)isoxazol-4-yl)methoxy)bicyclo[2.2.2]octan-1-yl)-1,2,4-oxadiazol-3-yl)-2,3-dimethoxybenzoic acid] registered an EC50 of 120 nM.

Turning to `O=C(O)c1ncc(OCC23CCC(OCc4c(-c5c(Cl)cncc5Cl)noc4C4CC4)(CC2)CC3)cc1OCC1CC1` [Example 337], a half-maximal response (EC50) required 27 nM.

Turning to `O=C(O)c1cc(OC(F)F)cc(-c2noc(C34CCC(/C=C/c5c(-c6c(Cl)cncc6Cl)noc5C5CC5)(CC3)OC4)n2)c1` [Example 497, (E)-3-(5-(1-(2-(5-cyclopropyl-3-(3,5-dichloropyridin-4-yl)isoxazol-4-yl)vinyl)-2-oxabicyclo[2.2.2]octan-4-yl)-1,2,4-oxadiazol-3-yl)-5-(difluoromethoxy)benzoic acid], the EC50 came out at 460 nM.

With `O=C(O)c1cc(-c2noc(C34CCC(OCc5c(-c6c(Cl)cccc6Cl)noc5C5CC5)(CC3)CO4)n2)ccc1F` [Example 198], the response was half-maximal at 98 nM (EC50).

In turn, `CS(=O)(=O)c1cc(C(=O)O)nc2ccc(OCC34CCC(OCc5c(-c6c(Cl)cncc6Cl)noc5C5CC5)(CC3)CC4)cc12` [Example 332, 6-((4-((5-cyclopropyl-3-(3,5-dichloropyridin-4-yl)isoxazol-4-yl)methoxy)bicyclo[2.2.2]octan-1-yl)methoxy)-4-(methylsulfonyl)quinoline-2-carboxylic acid] yielded an EC50 of 830 nM.

`O=C(O)c1ncc(OCC23CCC(OCc4c(-c5c(Cl)cncc5Cl)noc4C4CC4)(CC2)CC3)c2ccccc12` [Example 292, 4-((4-((5-cyclopropyl-3-(3,5-dichloropyridin-4-yl)isoxazol-4-yl)methoxy)bicyclo[2.2.2]octan-1-yl)methoxy)isoquinoline-1-carboxylic acid] came in with an EC50 of 9 nM.

In turn, `O=C(O)c1ccc2nc(OCC34CCC(OCc5c(-c6c(Cl)cncc6Cl)noc5C5CC5)(CC3)CC4)ccc2n1` [Example 298, 6-((4-((5-cyclopropyl-3-(3,5-dichloropyridin-4-yl)isoxazol-4-yl)methoxy)bicyclo[2.2.2]octan-1-yl)methoxy)-1,5-naphthyridine-2-carboxylic acid] registered an EC50 of 63 nM.

With `O=C(O)c1cccc2c1CCN(C(=O)C13CCC(OCc4c(-c5c(Cl)cccc5Cl)noc4C4CC4)(CC1)CC3)C2` [Example 139, 2-(4-((5-cyclopropyl-3-(2,6-dichlorophenyl)isoxazol-4-yl)methoxy)bicyclo[2.2.2]octane-1-carbonyl)-1,2,3,4-tetrahydroisoquinoline-5-carboxylic acid], the EC50 was 1400 nM.

Molecule `COc1ccc(C#CC23CCC(OCc4c(-c5c(Cl)cncc5Cl)noc4C4CC4)(CC2)CC3)cc1C(=O)O` [Example 367] gave an EC50 of 91 nM.

`CCOc1cc(OCC23CCC(OCc4c(-c5ccccc5C(F)(F)F)noc4C4CC4)(CC2)CC3)cnc1C(N)=O` [Example 299] yielded an EC50 of 2300 nM.

Take `O=C(O)c1csc(C23CCC(COCc4c(-c5ccccc5OC(F)(F)F)noc4C4CC4)(CC2)CO3)n1` [Example 214]: it took 1400 nM to reach a half-maximal effect (EC50).

Regarding `O=C(O)c1cccc(-c2noc(C34CC(COCc5c(-c6c(Cl)cccc6Cl)noc5C5CC5)(C3)C4)n2)c1` [Example 514, 3-(5-(3-(((5-cyclopropyl-3-(2,6-dichlorophenyl)isoxazol-4-yl)methoxy)methyl)bicyclo[1.1.1]pentan-1-yl)-1,2,4-oxadiazol-3-yl)benzoic acid], the EC50 came to 1700 nM.

For the molecule `O=C(O)c1ccnc(OCC23CCC(OCc4c(-c5c(Cl)cccc5Cl)noc4C4CC4)(CC2)CC3)c1` [Example 111, 2-((4-((5-cyclopropyl-3-(2,6-dichlorophenyl)isoxazol-4-yl)methoxy)bicyclo[2.2.2]octan-1-yl)methoxy)isonicotinic acid], the EC50 turned out to be 110 nM.

Consider `O=C(O)c1cc(F)cn2c(C#CC34CCC(OCc5c(-c6c(Cl)cncc6Cl)noc5C5CC5)(CC3)CC4)cnc12` [Example 520, 3-((4-((5-cyclopropyl-3-(3,5-dichloropyridin-4-yl)isoxazol-4-yl)methoxy)bicyclo[2.2.2]octan-1-yl)ethynyl)-6-fluoroimidazo[1,2-a]pyridine-8-carboxylic acid], for which the half-maximal effective concentration (EC50) turned out to be 4 nM.

As to `O=C(O)c1cccc(-c2noc(C34CCC(OCc5c(-c6ccccc6OC(F)(F)F)noc5C5CC5)(CC3)CC4)n2)n1` [Example 47], it took 550 nM to reach a half-maximal effect (EC50).

As to `O=C(O)c1ccc2nc(C34CCC(/C=C\c5c(-c6c(Cl)cccc6Cl)noc5C5CC5)(CC3)CC4)sc2c1` [Example 181, (Z)-2-(4-(2-(5-cyclopropyl-3-(2,6-dichlorophenyl)isoxazol-4-yl)vinyl)bicyclo[2.2.2]octan-1-yl)benzo[d]thiazole-6-carboxylic acid], the response was half-maximal at 780 nM (EC50).

Regarding `N#Cc1cc(C(F)(F)F)cc(C23CCC(COCc4c(-c5c(Cl)cncc5Cl)noc4C4CC4)(CC2)CO3)c1` [Example 488, 3-(4-(((5-cyclopropyl-3-(3,5-dichloropyridin-4-yl)isoxazol-4-yl)methoxy)methyl)-2-oxabicyclo[2.2.2]octan-1-yl)-5-(trifluoromethyl)benzonitrile], it took 2400 nM to reach a half-maximal effect (EC50).

`O=C(O)c1cc(C(F)(F)F)c2cc(CCC34CCC(OCc5c(-c6c(Cl)cncc6Cl)noc5C5CC5)(CC3)CC4)ccc2n1` [Example 430, 6-(2-(4-((5-cyclopropyl-3-(3,5-dichloropyridin-4-yl)isoxazol-4-yl)methoxy)bicyclo[2.2.2]octan-1-yl)ethyl)-4-(trifluoromethyl)quinoline-2-carboxylic acid] returned an EC50 of 24 nM.

The molecule `O=C(O)c1cccc2nc(C34CCC(OCc5c(-c6c(Cl)cncc6Cl)noc5C5CC5)(CC3)CC4)ccc12` [Example 368] gave an EC50 of 36 nM.

`O=C(O)c1sc(OCC23CCC(OCc4c(-c5c(Cl)cncc5Cl)noc4C4CC4)(CC2)CC3)nc1C(F)(F)F` [Example 317]: the EC50 worked out at 210 nM.

The molecule `N#Cc1ccc(C(=O)O)c2ccc(C34CCC(OCc5c(-c6c(Cl)cncc6Cl)noc5C5CC5)(CC3)CC4)nc12` [Example 384, 8-cyano-2-(4-((5-cyclopropyl-3-(3,5-dichloropyridin-4-yl)isoxazol-4-yl)methoxy)bicyclo[2.2.2]octan-1-yl)quinoline-5-carboxylic acid] had an EC50 of 820 nM.

`COc1ccc(C(=O)O)c2ccc(OCC34CCC(OCc5c(-c6c(Cl)cncc6Cl)noc5C5CC5)(CC3)CC4)nc12` [Example 342] displayed an EC50 of 33 nM.

Turning to `CC(C)Oc1nc(C(=O)O)cc2ccc(/C=C/C34CCC(OCc5c(-c6c(Cl)cncc6Cl)noc5C5CC5)(CC3)CC4)cc12` [Example 518, (E)-7-(2-(4-((5-cyclopropyl-3-(3,5-dichloropyridin-4-yl)isoxazol-4-yl)methoxy)bicyclo[2.2.2]octan-1-yl)vinyl)-1-isopropoxyisoquinoline-3-carboxylic acid], the midpoint of the response, the EC50, lay at 62 nM.

Regarding `Cc1cc(OCC23CCC(OCc4c(-c5c(Cl)cncc5Cl)noc4C4CC4)(CC2)CC3)cnc1C(=O)O` [Example 348, 5-((4-((5-cyclopropyl-3-(3,5-dichloropyridin-4-yl)isoxazol-4-yl)methoxy)bicyclo[2.2.2]octan-1-yl)methoxy)-3-methylpicolinic acid], it took 59 nM to reach a half-maximal effect (EC50).

Consider `COC(=O)c1ccc(-c2noc(C34CCC(COCc5c(-c6ccccc6OC(F)(F)F)noc5C5CC5)(CC3)CC4)n2)cc1` [Example 155], for which it took 2500 nM to reach a half-maximal effect (EC50).

Take `COc1ccc2nc(C34CCC(OCc5c(-c6c(Cl)cncc6Cl)noc5C5CC5)(CC3)CC4)ccc2c1C(=O)O` [Example 428]: the EC50 was found to be 120 nM.

`O=C(O)c1ccc(-c2noc(C34CCC(COCc5c(-c6ccccc6OC(F)(F)F)noc5C5CC5)(CC3)CC4)n2)cc1` [Example 154] gave an EC50 of 960 nM.

In turn, `O=C(O)c1ccc(N2CCCC2)c2nc(C34CCC(OCc5c(-c6c(Cl)cncc6Cl)noc5C5CC5)(CC3)CC4)ccc12` [Example 409] gave an EC50 of 81 nM.

In turn, `CC(C)Oc1cc(-c2noc(C34CCC(OCc5c(-c6c(Cl)cnn6C)noc5C5CC5)(CC3)CC4)n2)cc(C(=O)O)n1` [Example 274, 4-(5-(4-((3-(4-chloro-1-methyl-1H-pyrazol-5-yl)-5-cyclopropylisoxazol-4-yl)methoxy)bicyclo[2.2.2]octan-1-yl)-1,2,4-oxadiazol-3-yl)-6-isopropoxypicolinic acid] displayed an EC50 of 890 nM.

With `CCCc1cc(C(=O)O)nc2c(F)cc(OCC34CCC(OCc5c(-c6c(Cl)cncc6Cl)noc5C5CC5)(CC3)CC4)cc12` [Example 309, 6-((4-((5-cyclopropyl-3-(3,5-dichloropyridin-4-yl)isoxazol-4-yl)methoxy)bicyclo[2.2.2]octan-1-yl)methoxy)-8-fluoro-4-propylquinoline-2-carboxylic acid], the midpoint of the response, the EC50, lay at 13 nM.

One may read the EC50 as the concentration needed to bring the measured effect to its halfway point. Read a high EC50 as weaker potency.
